Patent US12129246B1, “Hydroquinazoline derivatives for the treatment of a disease or disorder” (Novartis AG, priority 2023, dated 2024)
Like-named read-outs stand apart in the source and are kept apart here.

Tests used:
[1] = target: monkey NPR1 (Macaca fascicularis, UniProt A0A7N9DBT9); experiment: Cellular cGMP production assay, monkey NPR1 expressing CHO-K1 cells (CisBio HTRF); format: cell-based; conditions: for Monkey NPR1 Amax (% of ANP): maximum cGMP production as percentage of the maximum cGMP produced with ANP
monkey NPR1, sequence (A0A7N9DBT9 entry or part of it): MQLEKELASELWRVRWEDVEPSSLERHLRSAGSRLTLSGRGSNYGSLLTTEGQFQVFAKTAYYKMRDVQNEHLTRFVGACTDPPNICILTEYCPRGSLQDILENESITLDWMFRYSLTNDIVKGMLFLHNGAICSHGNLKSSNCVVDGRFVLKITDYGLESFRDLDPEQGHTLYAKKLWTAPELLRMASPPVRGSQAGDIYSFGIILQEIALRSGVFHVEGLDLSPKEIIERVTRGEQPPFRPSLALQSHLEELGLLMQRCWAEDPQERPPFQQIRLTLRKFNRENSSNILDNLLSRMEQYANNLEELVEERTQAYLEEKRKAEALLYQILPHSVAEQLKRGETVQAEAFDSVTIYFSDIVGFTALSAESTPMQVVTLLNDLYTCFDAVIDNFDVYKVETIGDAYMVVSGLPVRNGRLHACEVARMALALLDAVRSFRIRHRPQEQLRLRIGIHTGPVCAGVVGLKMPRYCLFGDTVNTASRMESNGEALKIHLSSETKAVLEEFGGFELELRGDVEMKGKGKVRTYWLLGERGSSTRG
How it was run: (§1)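 12-pt 3-fold dose-response, top 30 μM; buffer PBS + 0.1% BSA + 1 mM IBMX (PDE inhibitor); 30 min, 37 °C. Lyse, add cGMP-d2 + anti-cGMP-cryptate, 1 h RT. Ex 317 / em 665 nm; Delta F converted to cGMP via calibrator standard curve.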

[2] = target: T1, human NPR1 (Homo sapiens, UniProt P16066); experiment: Cellular cGMP production assay, human NPR1 expressing CHO-K1 cells (CisBio HTRF); format: cell-based; conditions: for AC50: cGMP production, 30 min at 37° C., 12-point dose-response from 30 μM; for Human NPR1 Amax (% of ANP): maximum cGMP production as percentage of the maximum cGMP produced with ANP
T1 construct: host or cells: CHO-K1
T1 sequence (P16066 33-1061): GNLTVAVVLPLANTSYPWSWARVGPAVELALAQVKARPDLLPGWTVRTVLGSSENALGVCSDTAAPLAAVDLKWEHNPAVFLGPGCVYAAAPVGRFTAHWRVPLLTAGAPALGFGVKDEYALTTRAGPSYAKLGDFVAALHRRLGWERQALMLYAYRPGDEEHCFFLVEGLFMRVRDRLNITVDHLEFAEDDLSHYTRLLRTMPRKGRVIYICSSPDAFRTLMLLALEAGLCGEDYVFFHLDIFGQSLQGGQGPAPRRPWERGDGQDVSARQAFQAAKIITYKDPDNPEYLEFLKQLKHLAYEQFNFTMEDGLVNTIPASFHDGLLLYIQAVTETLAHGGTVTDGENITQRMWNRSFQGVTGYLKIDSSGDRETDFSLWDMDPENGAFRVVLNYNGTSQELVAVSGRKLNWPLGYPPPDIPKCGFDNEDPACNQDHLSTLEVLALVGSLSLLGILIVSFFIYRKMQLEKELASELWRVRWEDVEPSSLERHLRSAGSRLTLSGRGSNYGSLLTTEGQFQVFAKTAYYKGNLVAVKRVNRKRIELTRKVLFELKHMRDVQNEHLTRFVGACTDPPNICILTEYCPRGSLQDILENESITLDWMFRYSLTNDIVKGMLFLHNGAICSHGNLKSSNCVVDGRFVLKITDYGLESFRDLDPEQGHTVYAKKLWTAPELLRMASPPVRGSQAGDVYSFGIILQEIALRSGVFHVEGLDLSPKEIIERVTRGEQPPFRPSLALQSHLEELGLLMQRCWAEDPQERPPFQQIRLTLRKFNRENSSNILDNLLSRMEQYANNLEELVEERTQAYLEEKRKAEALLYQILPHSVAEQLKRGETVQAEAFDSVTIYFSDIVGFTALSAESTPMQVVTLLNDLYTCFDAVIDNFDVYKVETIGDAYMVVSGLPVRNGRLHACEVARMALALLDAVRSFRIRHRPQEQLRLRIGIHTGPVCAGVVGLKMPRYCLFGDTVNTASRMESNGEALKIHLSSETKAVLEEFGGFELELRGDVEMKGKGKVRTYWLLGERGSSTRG
How it was run: as §1

[3] = cGMP production, monkey NPR1 CHO-K1 cells, 30 min at 37° C., 12-point dose-response from 30 μM, read-out: Monkey NPR1 AC50

| SMILES | AC50 [1, 3] [nM] | Monkey NPR1 Amax (% of ANP) ([1]; monkey NPR1 CHO-K1 cells) | AC50 [2] [nM] | Human NPR1 Amax (% of ANP) [2] | AC50 [1] [nM] |
| --- | --- | --- | --- | --- | --- |
| CC[C@@H](Nc1nc2c(c(N[C@@H](CN3C[C@H](C)C[C@H](C)C3)c3cnn(C)c3)n1)C[C@H](c1ccccc1)CC2)[C@H]1CC[C@H](C(=O)O)CC1 [Compound 61, (1R,4r)-4-((R)-1-(((R)-4-(((R)-2-((3S,5R)-3,5-dimethylpiperidin-1-yl)-1-(1-methyl-1H-pyrazol-4-yl)ethyl)amino)-6-phenyl-5,6,7,8-tetrahydroquinazolin-2-yl)amino)propyl)cyclohexane-1-carboxylic acid] | 122 | 102.127 % of ANP | 207 | 104.236 % of ANP | – |
| CC[C@H]([C@H]1CC[C@H](C(=O)O)CC1)N(C)c1nc2c(c(N[C@@H](CN3C4CCCC3CC4)c3cnn(C)c3)n1)C[C@H](c1ccccc1F)CC2 [Compound 62, (1R,4r)-4-((1R)-1-(((6R)-4-(((1R)-2-(8-azabicyclo[3.2.1]octan-8-yl)-1-(1-methyl-1H-pyrazol-4-yl)ethyl)amino)-6-(2-fluorophenyl)-5,6,7,8-tetrahydroquinazolin-2-yl)(methyl)amino)propyl)cyclohexane-1-carboxylic acid] | – | 103.497 % of ANP | 207 | 94.244 % of ANP | 133 |
| CC[C@H]([C@H]1CC[C@H](C(=O)O)CC1)N(C)c1nc2c(c(N[C@@H](CN3C4CCC3CC4)c3cnn(C)c3)n1)C[C@H](c1ccc(F)cc1)CC2 [Compound 63, (1R,4r)-4-((R)-1-(((R)-4-(((R)-2-(7-azabicyclo[2.2.1]heptan-7-yl)-1-(1-methyl-1H-pyrazol-4-yl)ethyl)amino)-6-(4-fluorophenyl)-5,6,7,8-tetrahydroquinazolin-2-yl)(methyl)amino)propyl)cyclohexane-1-carboxylic acid] | – | 99.684 % of ANP | 210 | 100.629 % of ANP | 196 |
| CC[C@@H](Nc1nc2c(c(N[C@@H](CN3CCCC[C@H]3C)c3cnn(CC)c3)n1)C[C@H](c1ccccc1)CC2)[C@H]1CC[C@H](C(=O)O)CC1 [Compound 64, (1R,4r)-4-((R)-1-(((R)-4-(((R)-1-(1-ethyl-1H-pyrazol-4-yl)-2-((R)-2-methylpiperidin-1-yl)ethyl)amino)-6-phenyl-5,6,7,8-tetrahydroquinazolin-2-yl)amino)propyl)cyclohexane-1-carboxylic acid] | 175 | 92.911 % of ANP | 213 | 93.045 % of ANP | – |
| CC[C@@H](Nc1nc2c(c(N[C@@H](CN3C4CCCC3CCC4)c3cnn(CC)c3)n1)C[C@H](c1ccccc1)CC2)[C@H]1CC[C@H](C(=O)O)CC1 [Compound 65, (1R,4r)-4-((R)-1-(((R)-4-(((R)-2-((1S,5S)-9-azabicyclo[3.3.1]nonan-9-yl)-1-(1-ethyl-1H-pyrazol-4-yl)ethyl)amino)-6-phenyl-5,6,7,8-tetrahydroquinazolin-2-yl)amino)propyl)cyclohexane-1-carboxylic acid] | – | 99.329 % of ANP | 217 | 106.664 % of ANP | 128 |
| CC[C@H]([C@H]1CC[C@H](C(=O)O)CC1)N(C)c1nc2c(c(N[C@@H](CN3CCCCC3)c3cnn(C)c3)n1)C[C@](C)(c1ccccc1)CC2 [Compound 66, (1R,4r)-4-((R)-1-(methyl((R)-6-methyl-4-(((R)-1-(1-methyl-1H-pyrazol-4-yl)-2-(piperidin-1-yl)ethyl)amino)-6-phenyl-5,6,7,8-tetrahydroquinazolin-2-yl)amino)propyl)cyclohexane-1-carboxylic acid] | 123 | 98.088 % of ANP | 219 | 96.868 % of ANP | – |
| CC[C@H]([C@H]1CC[C@H](CC(=O)O)CC1)N(C)c1nc2c(c(N[C@@H](CN3CCC[C@H](C)C3)c3cnn(C)c3)n1)C[C@H](c1ccccc1)CC2 [Compound 67, 2-((1R,4r)-4-((R)-1-(methyl((R)-4-(((R)-1-(1-methyl-1H-pyrazol-4-yl)-2-((S)-3-methylpiperidin-1-yl)ethyl)amino)-6-phenyl-5,6,7,8-tetrahydroquinazolin-2-yl)amino)propyl)cyclohexyl)acetic acid] | 155 | 98.233 % of ANP | 229 | 95.228 % of ANP | – |
| CC[C@H]([C@H]1CC[C@H](C(=O)O)CC1)N(C)c1nc2c(c(N[C@@H](CN3CC4CCC3C4)c3cnn(C)c3)n1)C[C@](C)(c1ccccc1)CC2 (stereo partly drawn) [Compound 68, (1R,4r)-4-((1R)-1-(((6R)-4-(((1R)-2-(2-azabicyclo[2.2.1]heptan-2-yl)-1-(1-methyl-1H-pyrazol-4-yl)ethyl)amino)-6-methyl-6-phenyl-5,6,7,8-tetrahydroquinazolin-2-yl)(methyl)amino)propyl)cyclohexane-1-carboxylic acid] | 95 | 101.066 % of ANP | 234 | 96.721 % of ANP | – |
| CC[C@H](N(C)c1nc2c(c(N[C@@H](CN3C4CCCC3CC4)c3cnn(C)c3)n1)C[C@](C)(c1ccccc1)CC2)C12CC(C(=O)O)(C1)C2 [Compound 69, 3-((1S)-1-(((6R)-4-(((1R)-2-(8-azabicyclo[3.2.1]octan-8-yl)-1-(1-methyl-1H-pyrazol-4-yl)ethyl)amino)-6-methyl-6-phenyl-5,6,7,8-tetrahydroquinazolin-2-yl)(methyl)amino)propyl)bicyclo[1.1.1]pentane-1-carboxylic acid] | – | 100.449 % of ANP | 234 | 98.634 % of ANP | 220 |
| CC[C@H]([C@H]1CC[C@H](C(=O)O)CC1)N(C)c1nc2c(c(N[C@@H](CN3C4CCC3CC4)c3cnn(C)c3)n1)C[C@](C)(c1ccccc1)CC2 [Compound 70, (1R,4r)-4-((R)-1-(((R)-4-(((R)-2-(7-azabicyclo[2.2.1]heptan-7-yl)-1-(1-methyl-1H-pyrazol-4-yl)ethyl)amino)-6-methyl-6-phenyl-5,6,7,8-tetrahydroquinazolin-2-yl)(methyl)amino)propyl)cyclohexane-1-carboxylic acid] | – | 100.673 % of ANP | 234 | 97.399 % of ANP | 230 |
| CC[C@@H](Nc1nc2c(c(N[C@@H](CN3C4CC5CC(C4)CC3C5)c3cnn(C)c3)n1)C[C@H](c1ccccc1)CC2)[C@H]1CC[C@H](C(=O)O)CC1 [Compound 71, (1R,4r)-4-((R)-1-(((R)-4-(((R)-2-((5R,7R)-2-azaadamantan-2-yl)-1-(1-methyl-1H-pyrazol-4-yl)ethyl)amino)-6-phenyl-5,6,7,8-tetrahydroquinazolin-2-yl)amino)propyl)cyclohexane-1-carboxylic acid] | 78 | 121.791 % of ANP | 237 | 91.827 % of ANP | – |
| CC[C@H]([C@H]1CC[C@H](C(=O)O)CC1)N(C)c1nc2c(c(N[C@@H](CN3CCC[C@H](CO)C3)c3cnn(C)c3)n1)C[C@H](c1cccc(F)c1)CC2 [Compound 72, (1R,4r)-4-((R)-1-(((R)-6-(3-fluorophenyl)-4-(((R)-2-((S)-3-(hydroxymethyl)piperidin-1-yl)-1-(1-methyl-1H-pyrazol-4-yl)ethyl)amino)-5,6,7,8-tetrahydroquinazolin-2-yl)(methyl)amino)propyl)cyclohexane-1-carboxylic acid] | 137 | 104.824 % of ANP | 242 | 99.718 % of ANP | – |
| CC[C@@H](Nc1nc2c(c(N[C@@H](CN3CCC[C@H](C)C3)c3scnc3C)n1)C[C@H](c1ccccc1)CC2)[C@H]1CC[C@H](C(=O)O)CC1 [Compound 73, (1R,4r)-4-((R)-1-(((R)-4-(((S)-2-((S)-3-methylpiperidin-1-yl)-1-(4-methylthiazol-5-yl)ethyl)amino)-6-phenyl-5,6,7,8-tetrahydroquinazolin-2-yl)amino)propyl)cyclohexane-1-carboxylic acid] | 172 | 99.527 % of ANP | 245 | 94.290 % of ANP | – |
